Molecular target: T1, IRAK1 (Homo sapiens, UniProt P51617)
T1 construct: active recombinant IRAK1 enzyme
Assay: SPR ([…] model); supported by KINOMEscan active-site competition binding and CETSA in A2780 cells

T1 sequence (P51617 whole entry): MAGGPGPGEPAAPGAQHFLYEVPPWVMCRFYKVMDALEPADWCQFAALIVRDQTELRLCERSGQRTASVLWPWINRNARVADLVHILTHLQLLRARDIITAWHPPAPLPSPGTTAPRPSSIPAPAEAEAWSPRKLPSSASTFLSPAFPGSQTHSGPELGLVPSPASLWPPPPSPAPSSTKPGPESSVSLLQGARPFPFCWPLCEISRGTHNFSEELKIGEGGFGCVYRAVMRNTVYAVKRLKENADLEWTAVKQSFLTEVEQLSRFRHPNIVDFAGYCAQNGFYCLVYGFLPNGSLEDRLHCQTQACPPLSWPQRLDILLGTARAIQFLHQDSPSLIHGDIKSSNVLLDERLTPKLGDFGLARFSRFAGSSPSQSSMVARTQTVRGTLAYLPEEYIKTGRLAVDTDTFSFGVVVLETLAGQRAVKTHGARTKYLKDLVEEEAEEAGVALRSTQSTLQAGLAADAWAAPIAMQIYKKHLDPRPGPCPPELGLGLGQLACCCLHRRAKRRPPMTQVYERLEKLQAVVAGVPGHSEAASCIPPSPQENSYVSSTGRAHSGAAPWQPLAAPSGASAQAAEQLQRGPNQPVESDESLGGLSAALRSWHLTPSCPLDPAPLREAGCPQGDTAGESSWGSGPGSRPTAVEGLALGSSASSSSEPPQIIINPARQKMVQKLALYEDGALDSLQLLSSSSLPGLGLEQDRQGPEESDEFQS

SMILES: O=C(NO)c1ccc2[nH]c(=O)c(CCCc3ccccc3)nc2c1 [TCS2210]
- Kd: 1760 nM
